Data reported in patent US8470844B2, “Imidazoacridinone derivative compounds and methods for their use” (Technion Research & Development Foundation Limited, priority 2008, dated 2013).

Experiments:
A549/K1.5 cells = assay: MTT cytotoxicity assay, ABCG2-overexpressing A549/K1.5 cells; assay type: cell-based, Human; conditions: for IC50: ABCG2-overexpressing A549/K1.5 cells, 96 hours exposure, MTT; for RF (resistance fold): IC50 of A549/K1.5 cells divided by IC50 of parental A549 cells
Method: (§1) Tissue culture: Human non-small cell lung cancer A549 cells and T-cell leukemia CCRF-CEM cells were grown under monolayer conditions or up to a maximal density of 10^6 cells/ml (for CCRF-CEM cells) in RPMI-1640 medium (GIBCO) supplemented with 10% fetal calf serum, 2 mM glutamine, 100 μg/ml penicillin and 100 μg/ml streptomycin (Biological Industries, Beth-Haemek, Israel) in a humid atmosphere of 5% CO2. Drug resistant A549/K1.5 cells with ABCG2 overexpression were maintained under a continuous drug selection with 1.5 μM C-1305. Bram, E. E., et al., (2007) Biochem Pharmacol 74(1), 41-53.
(§2) Cytotoxicity and growth inhibition assays: The cytotoxic activity of the various IA antitumor agents was determined using the MTT assay. Poindessous, V., et al., (2003) Clin Cancer Res 9(7), 2817-2825.
(§3) Exponentially growing cells were seeded at 5×10^3 cells/well in 24-well plates (2 ml medium/well). Following an overnight incubation, cells were exposed to different drug concentrations for 96 hours. Cellular viability was determined by adding the tetrazolium salt MTT for 4 h at 37° C., followed by solubilization of the intracellular precipitated formazan in 1 ml DMSO and absorbance was determined by a microplate reader (ASYS Hitech GmbH, Austria). Drug concentrations required to inhibit cell growth by 50% (IC50) compared with untreated controls were determined from the curves of survival versus drug concentrations using the SlideWrite software (Advanced Graphics Software, Inc., Encinitas, Calif.). Resistance folds (RF) were calculated by dividing the IC50 value of the resistant cells by that of the parental cell line. Values presented are means of at least three independent experiments, each performed in duplicates.
Quantitative evaluation of ABCG2 interaction with various IA derivatives: The extent of ABCG2-mediated resistance was expressed using the Resistance Fold (RF) parameter representing the ratio between the IC50 values of the resistant cells and parental cells. Likewise, ABCG2-dependent differential accumulation of IAs in ABCG2-overexpressing A549/K1.5 cells was compared using the ratio of IA accumulation in the presence or absence of the potent ABCG2 inhibitor FTC. This was termed the FTC-dependent Accumulation Fold (AF) and was determined for each IA at a constant IA concentration of 10 μM.

A549 cells = assay: MTT cytotoxicity assay, parental A549 cells; assay type: cell-based, Human; conditions: 96 hours exposure, mean of at least three experiments
Method: as §1, §2, §3

ABCG2 (A549/K1.5 cells) [1] = biological target: T1, ABCG2 (A549/K1.5 cells) (Homo sapiens, UniProt Q9UNQ0); assay: Flow cytometric IA accumulation in A549/K1.5 cells with or without fumitremorgin C; assay type: cell-based
T1 construct: Drug resistant A549/K1.5 cells with ABCG2 overexpression were maintained under a continuous drug selection with 1.5 μM C-1305; endogenous in cells; host or cells: A549/K1.5 (C-1305-selected subline of human non-small cell lung cancer A549)
T1 sequence (Q9UNQ0 1-655): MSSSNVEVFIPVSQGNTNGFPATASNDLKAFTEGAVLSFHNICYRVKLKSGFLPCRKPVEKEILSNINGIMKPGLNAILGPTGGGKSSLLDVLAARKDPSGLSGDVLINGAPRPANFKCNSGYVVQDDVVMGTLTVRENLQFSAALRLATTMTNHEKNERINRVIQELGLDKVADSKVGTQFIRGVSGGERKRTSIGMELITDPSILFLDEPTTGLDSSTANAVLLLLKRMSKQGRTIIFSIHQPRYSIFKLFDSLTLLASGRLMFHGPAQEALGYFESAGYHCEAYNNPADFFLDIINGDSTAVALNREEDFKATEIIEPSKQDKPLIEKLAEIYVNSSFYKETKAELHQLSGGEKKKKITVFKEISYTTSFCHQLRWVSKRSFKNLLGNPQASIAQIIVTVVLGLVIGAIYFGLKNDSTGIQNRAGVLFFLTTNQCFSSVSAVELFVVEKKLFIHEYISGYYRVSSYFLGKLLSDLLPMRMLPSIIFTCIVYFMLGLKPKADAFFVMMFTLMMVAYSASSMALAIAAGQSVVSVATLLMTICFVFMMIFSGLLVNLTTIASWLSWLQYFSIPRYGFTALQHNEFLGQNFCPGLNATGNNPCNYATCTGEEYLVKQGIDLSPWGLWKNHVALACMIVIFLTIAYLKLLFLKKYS
Method: In this assay, one ml aliquots of A549/K1.5 or CCRF-CEM cell suspensions (1×10^6 cells/ml) in growth medium containing 20 mM Hepes at pH 7.3 were distributed into 1.5 ml polypropylene Eppendorf test tubes. […] Rabindran, S. […] Alternatively, in time-course experiments, IA derivatives at a constant concentration of 10 μM were added to a CCRF-CEM cell suspension incubated at 37° C., and 1 ml aliquots were removed at variable time points up to 1 hour. Following incubation, test tubes were transferred to ice and centrifuged at 4° C. Cells were then washed twice and re-suspended in ice-cold PBS containing 1% fetal calf serum and kept in the dark at 4° C. until analysis. […] Quantitative evaluation of ABCG2 interaction with various IA derivatives: The extent of ABCG2-mediated resistance was expressed using the Resistance Fold (RF) parameter representing the ratio between the IC50 values of the resistant cells and parental cells.

[2] = system: untransfected HEK293 cells; assay: Flow cytometric accumulation in untransfected HEK293 cells; assay type: cell-based, Human; conditions: 1 μM IA, ±5 μM FTC
Method: For cytotoxicity and accumulation experiments, cells were grown in drug-free medium for at least one week prior to the experiments. Human embryonic kidney cells (HEK293) and their stable transfectants overexpressing the R482, G482 and T482 ABCG2 were grown in the above RPMI-1640 medium supplemented with 2 mg/ml G-418. Bram, E. E., et al., (2006) Cancer Chemother Pharmacol 58(6), 826-834.
IA derivative and tetramethylrosamine (TMR) accumulation in parental HEK293 and their HEK293/ABCG2 R/G/T482 transfectants were carried out as described herein with the a slight amendment of using a single IA concentration of 1 μM ±FTC (5 μM) for the selected as well as 0.1 μM for TMR accumulation. Robey, R. W., et al., (2003) Br J Cancer 89(10), 1971-1978. Cellular fluorescence was determined using a FACSCalibur (BD Bioscience, San Jose, Calif. USA) flow cytometer. FL1-H excitation of IAs was at 488 nm and emission was collected at 525 nm, whereas FL2-H excitation of TMR was at […] and emission was collected at 574 nm. Flow cytometric results are presented as means±SD of 3 independent experiments.
Bram, E. E., et al., (2006) Cancer Chemother Pharmacol 58(6), 826-834.

ABCG2 (A549/K1.5 cells) [3] = biological target: T1, ABCG2 (A549/K1.5 cells); assay: Fluorescence microscopy of nuclear accumulation of IAs in A549/K1.5 cells; assay type: cell-based; conditions: 10 μM IA, 1 hr, presence or absence of 5 μM FTC
Method: In immunofluorescence microscopy of plasma membrane targeting of ABCG2 and nuclear accumulation of IAs, cells (1×10^4/well) were seeded in 24-well plates (1 ml medium/well) and incubated for 2 days, following which some wells were supplemented with 10 μM IA-containing medium±5 μM FTC and incubated for 1 h at 37° C. Cells were then washed twice with ice-cold PBS containing 0.1% BSA and blocked for 10 min at 4° C. with PBS containing 5% BSA. Cells were then washed once with ice-cold PBS containing 0.1% BSA and incubated for 30 min at 4° C. with a Phycoerythrin-conjugated, affinity-purified 5D3 mouse anti-human ABCG2 monoclonal antibody (1:100; eBioscience). Unspecific fluorescence was determined using cells that were incubated only with a secondary Phycoerythrin (PE)-conjugated goat anti-mouse IgG (1:200; Jackson Immunoresearch Labs, West Grove, Pa.). Cells were then washed twice and subjected to fluorescence microscopy using a DMIRE2 fluorescence microscope equipped with a DC300FX camera (Leica Microsystems, Wetzlar, Germany).
In order to exclude the possibility that differential subcellular accumulation of IA derivatives is the basis of the observed difference in cytotoxicity and cellular fluorescence, A549/K1.5 cells were incubated with 10 μM of selected IA derivatives from both group A and B in the presence or absence of FTC and subjected to fluorescence microscopy.

Compound | IC50 (A549/K1.5 cells) | RF (resistance fold) (A549/K1.5 cells) | resistance of A549/K1.5 cells (in words) (A549/K1.5 cells; versus parental A549 cells) | IC50 (A549 cells) | ABCG2-mediated extrusion / interaction with ABCG2 (in words) (ABCG2 (A549/K1.5 cells) [1]) | resistance of A549/K1.5 cells (A549/K1.5 cells; versus parental A549 cells) | efflux (in words) [2] | hypersensitivity of A549/K1.5 cells (A549/K1.5 cells; versus parental A549 cells) | nuclear accumulation (fluorescence microscopy) (ABCG2 (A549/K1.5 cells) [3])
CN(C)CCCCCNc1ccc2ncn3c4ccc(O)cc4c(=O)c1c23.Cl [C-1492] | 17.2 ± 1.95 µM | 10.10 | prominent resistance | 1.69 ± 0.12 µM |  |  |  |  | 
CN(C)CCCNc1ccc2ncn3c4ccc(O)cc4c(=O)c1c23.Cl [C-1371] | 0.7 ± 0.03 µM | 17.90 | prominent resistance | 0.04 ± 0.006 µM |  |  |  |  | 
CCN(CC)CCNc1ccc2ncn3c4ccc(C(C)(C)C)cc4c(=O)c1c23.Cl [C-1558] | 2.51 ± 0.17 µM | 1.70 |  | 1.48 ± 0.25 µM |  |  |  |  | 
CN(C)CCCNc1ccc2ncn3c4ccccc4c(=O)c1c23.Cl [C-1212] | 1.93 ± 0.84 µM | 1.02 |  | 1.89 ± 0.42 µM |  |  |  |  | 
COc1ccc2c(c1)c(=O)c1c(NCCCN(C)C)ccc3nc(C)n2c31.Cl [C-1375] | 1.25 ± 0.11 µM | 0.96 |  | 1.3 ± 0.06 µM |  |  |  |  | 
CCN(CC)CCCCCCCCCNc1ccc2ncn3c4ccc(O)cc4c(=O)c1c23.Cl [C-2018] | 2.13 ± 0.62 µM | 1.38 |  | 1.54 ± 0.31 µM | failed to display any significant interaction with ABCG2 |  |  |  | 
Cc1nc2ccc(NCCN(C)C)c3c(=O)c4cc(O)ccc4n1c23.Cl [C-1309] | 3.22 ± 0.18 µM | 60.80 | prominent resistance | 0.05 ± 0.007 µM |  | 61 fold | not from untransfected HEK293 cells |  | 
CCN(CC)CCCNc1ccc2nc(C)n3c4ccc(OC)cc4c(=O)c1c23.Cl [C-1379] | 0.68 ± 0.06 µM | 0.63 |  | 1.07 ± 0.03 µM |  |  |  |  | 
CCN(CC)CCCNc1ccc2ncn3c4ccc(O)cc4c(=O)c1c23.Cl [C-1335] | 1 ± 0.25 µM | 11.10 | prominent resistance | 0.09 ± 0.004 µM |  |  |  |  | 
CN(C)CCCCCNc1ccc2ncn3c4ccccc4c(=O)c1c23.Cl [C-1266] | 0.56 ± 0.002 µM | 0.20 |  | 2.81 ± 0.27 µM |  |  |  | 5.0 fold | comparable and significant nuclear accumulation regardless of ABCG2 inhibition by FTC
